Like-named read-outs stand apart in the source and are kept apart here.
What was measured:
[1] = test system: heme cancer cell lines (MCL, AML, MM, lymphoma); assay: Cell Titer-Glo growth/death assay; format: cell-based; conditions: several heme cancer cell lines incl. MCL, MM and lymphoma
Method: Heme cancer cells were treated with a PRMT5 inhibitor and a Cell Titer-Glo growth/death assay was performed.

Granta-519 = assay: Gene expression of apoptotic response genes (real time PCR); format: cell-based, Human; conditions: day 4
Method: (§1) The fold change was calculated using the Comparative Ct method ([…]). N=1. A previous RNA Seq study in MCL cell lines using a tool compound with the same cellular potency as Formula B identified expression changes in a number of genes involved in the apoptotic response (unpublished results). These genes included the Bcl-2 family members PUMA and BAX, well characterized drivers of the apoptotic response. Other genes implicated in the apoptotic response were also identified and include PHLDA3, TP53I3, p21, APOBEC3H, TRIM22, and FAS.

Mino cells = assay: as above; format: cell-based, Human; conditions: day 4
Method: as §1

Jeko-1 cells = assay: as above; format: cell-based, Human; conditions: day 4
Method: as §1

[2] = test system: cellular methylation (symmetric di-methyl arginine) in Maver-1 cells; assay: In Cell Western (ICW) methylation assay, SYM11 antibody; format: cell-based; conditions: Homo sapiens, Maver1, 96 h, 4 days of treatment, n=1
Method: [Worded in the source for another cell line; this cell line is reported under the same test.] Percent inhibition was determined and IC50 curves were generated using triplicate wells per concentration of compound. IC50 values were calculated using GraphPad Prism using a 4-parametric fit of the normalized dose response curves with the top fixed to 100%. Z-138 cells were seeded in assay medium at a concentration of 50,000 cells per mL to a 384-well cell culture plate with 50 μL per well. Compound (100 nL) from 384 well source plates was added directly to 384 well cell plate. Plates were incubated at 37° C., 5% CO2 for 96 hours. After four days of incubation, 40 μL of cells from incubated plates were added to poly-d-lysine coated 384 well culture plates (BD Biosciences 356697). Plates were incubated at room temperature for 30 minutes then incubated at 37° C., 5% CO2 for 5 hours. After the incubation, 40 μL per well of 8% paraformaldehyde in PBS (16% paraformaldahyde was diluted to 8% in PBS) was added to each plate and incubated for 30 minutes. Plates were transferred to a Biotek 405 plate washer and washed 5 times with 100 μL per well of wash buffer (1×PBS with 0.1% Triton X-100 (v/v)). […] The average of the ratio values for each control type was calculated and used to determine the percent inhibition for each test well in the plate. […] Percent inhibition was determined and IC50 curves were generated using triplicate wells per concentration of compound. […]

Z-138 = assay: Long-term proliferation (LTP) assay; format: cell-based; conditions: Homo sapiens
Method: FIG. 4 illustrates a representative sample of a long-term proliferation assay performed in the mantle cell lymphoma cell line Z-138. Assays were performed in technical triplicates, reading cell viability over 14 days. Growth curves (top panel) were calculated in Excel. IC50 (bottom panel) and IC90 (not shown) values were calculated in GraphPad Prism using a non-linear regression analysis, fixing the top and bottom of the curves to 100 and 0%, respectively. The IC50 values in the Table are indicated in microM. [table]

[3] = test system: MCL cell lines (Z-138, Maver-1, Mino, Jeko-1, Granta-519); assay: Gene expression results from MCL cell lines (Table 4); format: cell-based, Human; conditions: Day 4
Method: as §1, with “FAS. […] [table]” for “FAS.”

Maver-1 xenograft model = assay: 21 day mantle cell lymphoma xenograft study: TGI and tumor methyl mark; format: in vivo; conditions: all doses tested, day 21
Method: Data presented in this example were determined after analysis of 21 day samples of mantle cell lymphoma tumors. Cmin PK samples were taken prior to the last dose on day 21. Tumors were excised, weighed and processed for methyl mark. Methyl mark reduction was measured in tumor samples and is shown as percent of vehicle control (POC). Both SYM11 and sDMA Elisa were used to measure methyl mark and the data shown is averaged from 10 animals. Tumor growth inhibition was determined using tumor volume reduction at day 21 expressed as a percent of POC. In vivo inhibition curves were also generated and IC50 values determined. Plasma levels from each group are averaged from 5 animals. […] The average body weight loss (BWL) in all groups was <6%. All doses tested show >50% TGI. […] The average BWL in all groups was <4%. The average BWL in all groups was <8%, except in the 100 mg/kg does group were 4 animals exceeded BWL of 15%.

[4] = tested: Z-138, Maver-1, Granta-519, Jeko-1

| IC50 [2] [nM] | SMILES | proliferation in heme cancer cell lines [1] | gene expression for p21, TRIM22, and FAS (Granta-519) | increase in the gene PHLDA3 (Granta-519) [fold] | effects in any of the genes tested (Mino cells) | effects in any of the genes tested (Jeko-1 cells) | IC50 (Z-138; 264 h, 11-day treatment, N = 1, read-out: Formula B LTP IC50) [nM] | IC90 (Z-138; 264 h, 11-day treatment, N = 1, read-out: Formula B LTP IC90) [nM] | IC50 (Z-138; Table 3, read-out: LTP IC50) [nM] | Cell Lines Showing Dose Dependent Changes: P21 ([3]; tested: Z-138, Granta-519, Jeko-1) | Cell Lines Showing Dose Dependent Changes: BAX ([3]; tested: Z-138, Maver-1) | Cell Lines Showing Dose Dependent Changes: FAS [3, 4] | Cell Lines Showing Dose Dependent Changes: TRIM22 [3, 4] | Cell Lines Showing Dose Dependent Changes: PUMA ([3]; tested: Z-138, Maver-1, Mino, Jeko-1, Granta-519) | Tumor growth inhibition (TGI) (Maver-1 xenograft model) [%] |
| --- | --- | --- | --- | --- | --- | --- | --- | --- | --- | --- | --- | --- | --- | --- | --- |
| – | O=C(NC[C@H](O)CN1CCc2ccccc2C1)c1ccnc(NC2CCC2)c1 [Formula C] | inhibits proliferation | – | – | – | – | – | – | – | – | – | – | – | – | – |
| 1.9 | CC(=O)N1CCC(Nc2cc(C(=O)NC[C@H](O)CN3CCc4ccccc4C3)ccn2)CC1 [Formula B] | – | only modest increases | ≤ 10 | did not show any significant effects | did not show any significant effects | 3 | 20 | 2 | Z-138, Granta-519 | Z-138, Maver-1 | Granta-519 (slight) | Granta-519 (slight) | Z-138, Maver-1 | > 50 |

— patent publication US10653693B2, “PRMT5 inhibitors and uses thereof” (Epizyme, Inc., priority 2014, dated 2020)
